Test results: patent US5851537A (priority 1997, dated 1998)
In brackets after ≈: the same amount, converted by molar mass.

Legend:
[1] = test system: psoriasis and various cutaneous malignancies; conditions: cited from earlier work
[2] = test system: cultured normal keratinocytes; conditions: in vitro; cited from earlier work
[3] = oral, humans; cited from earlier work
[4] = in vivo
Text: (§1) Forty-eight participants with severe actinic keratoses (AKs) on their forearms (i.e. at least ten well circumscribed lesions nonlateral, sun-exposed surfaces) completed a one month run-in on placebo ointment applied twice daily to the affected areas. […] After six months of treatment, all measurements were repeated. […] The study was described at the thirty-second annual meeting of the American Society of Clinical Oncology on May 18-21, 1996.

[5] = chemical stability of α-DFMO in cream, HPLC; format: physicochemical; conditions: Vanicream, 4° C., six month time point; 262800 min
Description: The reverse phase (C-18 column, Alitech Associates, 150 mm×4.6 mm, […]) assay was performed with a 30 minute gradient elution using two mobile phases (A and B) containing aqueous buffer and acetonitrile, respectively. Mobile phase A contained 100 mM sodium acetate, 15 mM triethylamine, and […] sodium EDTA dissolved in water at pH 5.0. Mobile phase B was acetonitrile UV® (Burdick & Jackson, Muskegon, Mich.). The starting proportion, A:B, was 92:8, at 18 min. it was 80:20; at 19-21 min. 40:60; and at 22-30 min. 92:8 [21]. The mobile phase was pumped at 1.2 mL/min. using a Perkin Elmer Biocompatible Binary Pump, a Hitachi AS-2000 Autosampler and a Hewlett Packard Series 1050 Solvent Programmer.
For the stability assays, the 10% cream formulation was stored at 4° C. for up to 6 months and 10 μL aliquots were removed weekly and analyzed by HPLC after extraction using 1 mL distilled water.

mouse epidermis = conditions: five percent solution, in vitro; cited from earlier work
mouse skin [6] = experiment: in vitro transdermal penetration, mouse skin (diffusion cells); format: in vitro ADME, BALB/c mice
BALB/c mice = experiment: four week topical toxicity study in mice; format: in vivo
Text: Adult female BALB/c mice, 25-31 gm. weight, were obtained from Jackson Laboratories, Bar Harbor, Me. For toxicology tests, the mice were housed 5/cage and received standard lab chow and tap water ad libitum. A 12-hour light/dark cycle in a humidified atmosphere was utilized. Toxicology Study A cohort of 20 mice were de-haired over a 2 cm^2 dorsal area using the topical depilatory agent, Nair® Lotion (Carter Wallace, Inc., New York, N.Y.). […] The daily dose was delivered by a positive displacement pipette (Micro-Man®, Gilson Scientific, Woburn, Mass.).
Using the murine total body surface area conversion nomogram of Freireich et al., the daily doses for the 3 cream concentrations of 1%, 5% and 10% were 71.4 mg/m^2, 357 mg/m^2, 714 mg/m^2. For the total four week period, the cumulative doses were 1.43 g/m^2, 7.14 g/m^2 and 14.28 g/m^2. […] The skin application sites were observed daily for evidence of any local toxicity (erythema, induration or ulceration) and the animals were weighed weekly. At the end of the four week treatment period, the mice were sacrificed by rapid cervical dislocation and blood samples were obtained for quantifying renal function (BUN, creatinine), hepatic function (SGOT-SGPT, bilirubin), electrolytes (Na^+ K^+ Cl^-, ^- HCO3^-), hematologic indices (WBC with differential, RBC, platelets) and glucose (Animal Diagnostic Laboratories,Tucson, Ariz.).

human skin [7] = test system: human skin
human skin [8] = experiment: in vitro transdermal penetration, human skin (diffusion cells); conditions: 24 hours, 37° C., 10% α-DFMO
actinic keratoses (AKs) = experiment: phase IIb study, number of actinic keratoses; format: in vivo, human; conditions: 10% (w/w) topical, six months, compared to placebo
Text: as §1

ornithine decarboxylase = conditions: time and concentration dependence, reversibility; cited from earlier work
[9] = oral, single 0.5 g/m^2 dose given daily, cited from earlier work
UVB induced skin cancer = conditions: cited from earlier work
total polyamines = experiment: phase IIb study, total polyamines; format: in vivo, human; conditions: 10% (w/w) topical, six months, compared to placebo
Text: as §1

skin ODC = conditions: five of seven subjects, 6 hours after oral dosing, 0.5 g/m^2; cited from earlier work
[10] = phase IIb study, α-DFMO in skin and blood
Text: as §1

human skin [11] = experiment: in vitro
Description: (§2) These were minced by scissors and then sonicated for 30 seconds in 100 μL of (0.4 m) HClO4 containing 10 mM internal standard GABA. To this mixture, 100 μL of water was added and the contents were then centrifuged at 10,000×G for 3 min. A 10 μL aliquot of supernatant was added to 40 μL of sodium tetraborate solution (pH 9.3) and mixed with […] the derivatizing agent 6-aminoquinolyi-N-hydroxysuccinimidyl carbamate. This mixture was then heated for 10 min. at 50° C. and a 20 μL aliquot was injected into the HPLC.

in vitro = conditions: skin, topical or ocular
Description: as §2

mouse skin [12] = experiment: α-DFMO content of mouse skin samples; conditions: 10% α-DFMO in Vanicream, 37° C.
Description: as §2

[13] = solubility limit in the vehicle; format: physicochemical; conditions: in the particular vehicle used
Text: Having thus described the invention, it will be apparent to those of skill in the art that modifications can be made within the scope of the invention. […] Also, the vehicle cannot contain absorption enhancers.

psoriatic lesions = conditions: cited from earlier work
[14] = ten percent cream with absorption enhancer, ten patients

CC(/C=N/NC(=N)N)=N\NC(=N)N [MGBG, mitoguazone]
skin irritation ([1]; in vivo): highly irritating
therapeutic effects in psoriasis and various cutaneous malignancies ([1]; topically or intralesionally): produces therapeutic effects
proliferation of cultured normal keratinocytes [2]: decrease the proliferation

NCCC[C@](N)(C(=O)O)C(F)F [α-DFMO, alpha-difluoromethylornithine]
ototoxicity [3]: associated with ototoxicity
participants with moderately severe skin rash [4]: one
participants with skin rash in the area of DFMO application [4]: Four
systemic toxicities [4]: no systemic toxicities
loss of α-DFMO [5]: < 1%
putrescine levels (mouse epidermis): twenty-five
spermine and spermidine levels (mouse epidermis): not affected
synthesis of DNA (mouse epidermis): blocks the synthesis of DNA
uptake into and penetration through mouse skin (mouse skin [6]): significant α-DFMO uptake into and penetration through mouse skin
degree of transdermal penetration versus azone-containing formulation (mouse skin [6]; 10% α-DFMO in Vanicream, mice, vs 5% α-DFMO with azone): substantially less
calculated penetration rate (mouse skin [6]; mouse skin, 10% α-DFMO formulation in Vanicream): 3.6 μg/cm^2 /hour
mean percent uptake (transdermal penetration) (mouse skin [6]; mouse skin, 37° C., 24 hours, 10% α-DFMO): 61.53 % of the applied dose
time of maximal transdermal penetration (mouse skin [6]; mouse skin, 37° C., Vanicream): 24 h
time of maximal penetration (mouse skin [6]; mouse skin, hydrophilic ointment U.S.P., 37° C.): 12 h
drug related alterations in weight gain (BALB/c mice; mouse, in vivo): without drug related alterations in weight gain
hair regrowth (BALB/c mice; mouse, in vivo): proceeded normally
local skin irritation (BALB/c mice; mouse, in vivo): no evidence of local skin irritation
serum enzymes, electrolytes or hematologic parameters (BALB/c mice; mouse, in vivo): no alterations
survival (BALB/c mice; topical 1%, 5% or 10% cream, through the study period): survived through the study period
toxicity in mice (summary) (BALB/c mice; topical formulation): nontoxic in mice
time until transdermal human skin penetration apparent (human skin [7]): > 20 h
degree of penetration (human skin [8]): 0.7 % of the applied concentration
reduction in the number of AKs (actinic keratoses (AKs)): 21%
inhibition of ornithine decarboxylase (ornithine decarboxylase): time and concentration dependent but is irreversible
plasma concentration×time product [9]: 311 μm×hr
terminal phase half life [9]: 3.5 h
Cmax ([9]; read-out: peak α-DFMO plasma concentrations): 47.1 µM
body weight loss (UVB induced skin cancer; 1% drinking water solution): 16%
hyperactivity (UVB induced skin cancer; 1% drinking water solution): sound-induced hyperactivity
UVB induced skin cancer incidence (UVB induced skin cancer; 1% solution in drinking water, reduced from 38%): 9%
UVB-induced immunosuppression (UVB induced skin cancer; oral α-DFMO regimen, 1% in drinking water): prevented UVB-induced immunosuppression
suppression of total polyamines (total polyamines): 21%
reduction in skin ODC levels (skin ODC): ≥ 50%
α-DFMO in blood ([10]; 10% (w/w) topical, six months): not detected in blood
systemic uptake ([10]; in vivo): no systemic uptake
treated forearms with high DFMO skin levels ([10]; in vivo): thirteen
intradermal levels (human skin [11]): substantial intradermal levels
time of peak uptake into human skin (human skin [11]): 24 h
concentration (human skin [11]; human, skin, topical or ocular): 1360 µM
concentration at 24 h (in vitro; human): 323000 ng/g
concentration at 4 h (in vitro; mouse): 7.25e+06 ng/g
time of peak uptake into mouse skin (mouse skin [12]): 4 h
solubility [13]: ~220 mg/mL (≈ 1210 mM)
systemic uptake (psoriatic lesions; human, in vivo): systemic uptake in the patients
improvement in psoriatic lesions (psoriatic lesions; [14]): marginal improvement
reduction of cutaneous spermine levels (psoriatic lesions; [14]): sixty-six
